Target: T1, human NPY Y5 receptor (Homo sapiens, UniProt Q15761)
T1 construct: expressed in transfected cells; host or cells: COS-7, CHO and LM(tk-)
T1 sequence (Q15761 1-445): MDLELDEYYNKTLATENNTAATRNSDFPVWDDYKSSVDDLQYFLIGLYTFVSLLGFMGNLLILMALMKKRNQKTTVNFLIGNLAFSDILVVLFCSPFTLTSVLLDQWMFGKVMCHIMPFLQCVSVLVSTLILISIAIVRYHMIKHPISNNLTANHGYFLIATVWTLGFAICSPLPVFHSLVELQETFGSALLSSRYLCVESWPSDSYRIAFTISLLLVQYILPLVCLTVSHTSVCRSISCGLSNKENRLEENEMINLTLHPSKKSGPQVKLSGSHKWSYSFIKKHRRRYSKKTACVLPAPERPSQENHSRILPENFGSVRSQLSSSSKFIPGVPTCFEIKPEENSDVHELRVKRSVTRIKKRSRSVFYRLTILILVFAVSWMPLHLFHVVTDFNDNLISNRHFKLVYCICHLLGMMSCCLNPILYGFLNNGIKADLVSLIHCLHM
Experiment: NPY binding inhibition test ([125I]peptide YY binding to membranes of NPY Y5 receptor expressing cells)
Details: membrane sample of NPY Y5 receptor expressed cells, 25° C., 2 hours, read-out: IC50 against specific peptide YY binding
From the text: The cDNA sequence (refer to the specification of WO 96/16542) encoding human NPY Y5 receptor was cloned into the expression vectors, pcDNA3, pRc/RSV (supplied by Invitrogen Co.) and pCI-neo (supplied by Promega Co.). The resultant expression vectors were transfected into the host cells, COS-7, CHO and LM(tk−) (American Type Culture Collection) using the cationic lipid method (refer to Proceedings of the National Academy of Sciences of the United States of America, vol. 84, pp. 7413 (1987)) to give NPY Y5 receptor expression cells. A membrane sample prepared from the NPY Y5 receptor expressed cells was incubated together with a test compound and 20,000 cpm of [^125I]peptide YY (supplied by NEN Co.) in an assay buffer (25 mM Tris buffer, pH 7.4, containing 10 mM of magnesium chloride, 1 mM of phenylmethylsulfonyl fluoride, 0.1% bacitracin and 0.5% bovine serum albumin) at 25° C. for 2 hours, followed by filtration through glassfilter GF/C. After washing with 5 mM Tris buffer (pH7.4) containing 0.3% BSA, radioactivity of the cake on the filter was measured. Non-specific binding was measured in the presence of 1 μM of peptide YY, and a 50% Inhibition Concentration (IC50 value) of the test compound against specific peptide YY binding was determined (refer to Endocrinology, vol. 131, pp. 2090 (1992)).

`CC(C)(C)S(=O)(=O)N[C@H]1CC[C@H](c2nc3nc(-c4ccccc4F)ccc3[nH]2)CC1` [Example 4, 2-(trans-4-tert-butylsulfonylamino-cyclohexyl)-5-(2-fluorophenyl)imidazo[4,5-b]pyridine] and `CC(C)(C)S(=O)(=O)N[C@H]1CC[C@H](c2nc3nc(-c4ccccc4)ncc3[nH]2)CC1` [Example 9, 8-(trans-4-tert-butylsulfonylamino-cyclohexyl)-2-phenylpurine] are within 1.5-fold of each other in IC50: 1.4 nM for the first, 1.6 nM for the second.

`CS(=O)(=O)Nc1ccccc1N1CCN(c2nc3nc(-c4ccccc4)ncc3[nH]2)CC1` [Example 22, 8-{1-(2-methylsulfonylaminophenyl)piperazin-4-yl}-2-phenylpurine] and `CC(C)(C)S(=O)(=O)NC1CCN(c2nc3ccc(-c4ccccc4)cc3[nH]2)CC1` [Example 17, 2-(4-tert-butylsulfonylaminopiperidin-1-yl)-5-phenylbenzimidazole] are within 1.5-fold of each other in IC50: 1.7 nM for the first, 1.5 nM for the second.

Going from `CC(C)(C)S(=O)(=O)N[C@H]1CC[C@H](c2nc3ccc(-c4ccccc4)cc3[nH]2)CC1` [Example 3, 2-(trans-4-tert-butylsulfonylamino-cyclohexyl)-5-phenylbenzimidazole] to `CC(C)(C)S(=O)(=O)N[C@H]1CC[C@H](c2nc3nc(-c4ccc(F)cc4)ncc3[nH]2)CC1` [Example 7, 8-(trans-4-tert-butylsulfonylamino-cyclohexyl)-2-(4-fluorophenyl)purine], the IC50 rises from 0.67 nM to 1.2 nM (1.8-fold). The first is the more potent here.

Source: patent publication US7691860B2, “Sulfonamide derivatives” (Banyu Pharmaceutical Co., Ltd., priority 2004, dated 2010)
